In general, IC50 refers to the midpoint of a concentration-inhibition curve.

Numbered stars: 1 amine (or outer) side, 2 acyl side, 3 side chain; on linkers, the order of the positions; unused ones are H or OH. Bridge positions count the residues as written; N and C are the ends. Side chains are listed from the residue outwards. Peptide text beside a SMILES is read from it. * marks the point of attachment. C20 diacid = O=C(O)CCCCCCCCCCCCCCCCCCC(=O)*; γGlu = O=C(O)[C@H](CCC(=O)[*:2])N[*:1]

Data set [1] concerns the target T1, rat amylin receptor (rat calcitonin receptor + rat RAMP 3) (Rattus norvegicus, UniProt P32214+Q9JJ73).
T1 construct: expressed in transfected cells; host or cells: BHK tk'ts 13 (transient, FuGENE 6), membranes
T1 sequence (P32214 25-479 isoform P32214-2 limits assumed): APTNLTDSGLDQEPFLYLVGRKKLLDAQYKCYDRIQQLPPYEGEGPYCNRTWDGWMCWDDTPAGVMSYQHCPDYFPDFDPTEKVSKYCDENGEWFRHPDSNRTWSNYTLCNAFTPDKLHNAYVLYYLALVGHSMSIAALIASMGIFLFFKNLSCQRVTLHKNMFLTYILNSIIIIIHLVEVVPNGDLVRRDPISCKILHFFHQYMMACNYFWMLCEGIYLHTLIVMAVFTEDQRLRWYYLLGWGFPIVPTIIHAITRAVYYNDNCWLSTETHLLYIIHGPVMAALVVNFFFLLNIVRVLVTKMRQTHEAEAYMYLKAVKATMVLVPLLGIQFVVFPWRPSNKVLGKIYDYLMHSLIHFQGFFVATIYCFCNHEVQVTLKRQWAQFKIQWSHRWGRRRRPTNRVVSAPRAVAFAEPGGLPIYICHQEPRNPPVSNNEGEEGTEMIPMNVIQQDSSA
T1 sequence (Q9JJ73 23-147 partner): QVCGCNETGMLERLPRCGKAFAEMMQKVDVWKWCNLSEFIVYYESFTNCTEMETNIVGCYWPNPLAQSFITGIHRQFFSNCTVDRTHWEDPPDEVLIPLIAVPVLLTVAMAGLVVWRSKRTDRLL
The data set can be described thus: ASSAY (VI) binding to the rat amylin receptor. Conditions: for IC50: binding to rat amylin receptor, read-out: rAmylin-R bind IC50. The gist of the method:
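Binding to the rat amylin receptor was determined with membrane preparations. The receptor was expressed by transiently transfecting BHK tk′ts 13 cells with rat calcitonin receptor, using FuGENE® 6 (Roche) according to the manufacturer's recommendations. Roughly 48 hours later the cells were harvested and their membranes isolated.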

The nature of data set [2]: ASSAY (III) ThT fibrillation assay for physical stability. It is filed as physicochemical. The gist of the method: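 Formulations with 1 μM ThT, pH adjusted as required, incubated at 37 °C with 960 rpm orbital shaking; fluorescence (ex 444/em 485 nm) read every 20 min. Fibrillation reported as mean ThT fluorescence ± SD of 4–8 replicates at time points; polypeptide concentration measured by reverse-phase HPLC before and after, post-centrifugation.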

Where [3] appears, read: Table 7, rat binding selectivity, rCTR IC50 / rAmylin-R IC50.
The mark [4] stands for this setting: Table 7a (preferred compounds), rat binding selectivity, rCTR IC50 / rAmylin-R IC50.
[5] abbreviates: ratio of rCTR bind IC50 to rAmylin-R bind IC50.

Consider `CC[C@H](C)[C@H](NC(=O)[C@H](C)NC(=O)CNC(=O)[C@H](Cc1ccccc1)NC(=O)[C@H](CC(N)=O)NC(=O)[C@@H]1CCCN1C(=O)[C@H](CO)NC(=O)[C@H](CO)NC(=O)[C@H](Cc1c[nH]cn1)NC(=O)[C@H](CCCNC(=N)N)NC(=O)[C@H](CC(C)C)NC(=O)[C@H](Cc1ccccc1)NC(=O)[C@H](CCC(=O)O)NC(=O)[C@H](C)NC(=O)[C@H](CC(C)C)NC(=O)[C@H](CCCNC(=N)N)NC(=O)[C@H](CCC(N)=O)NC(=O)[C@@H](NC(=O)[C@H](C)NC(=O)[C@@H]1CSSC[C@H](NC(=O)[C@H](CCCCN)NC(=O)CC[C@H](NC(=O)CCCCCCCCCCCCCCCCCCC(=O)O)C(=O)O)C(=O)N[C@@H](CC(N)=O)C(=O)N[C@@H]([C@@H](C)O)C(=O)N[C@@H](C)C(=O)N[C@@H]([C@@H](C)O)C(=O)N1)[C@@H](C)O)C(=O)N1CCC[C@H]1C(=O)N[C@@H](CO)C(=O)N[C@@H](CO)C(=O)N[C@H](C(=O)N[C@@H](CC(N)=O)C(=O)N[C@H](C(=O)NCC(=O)N1CCC[C@H]1C(=O)N[C@@H](CC(N)=O)C(=O)N[C@H](C(=O)N[C@@H](Cc1ccc(O)cc1)C(N)=O)[C@@H](C)O)C(C)C)[C@@H](C)O` [Example 32] ({C20 diacid-γGlu}-KCNTATCATQRLAEFLRHSSPNFGAIPSSTNVGPNTY-NH2; disulfide 2-7), for which the IC50 in data set [1] (Table 7) came out at 0.176 nM. The “Ratio rCT/rAmylin binding” value in data set [1] (setting [3]), in data set [1] (setting [4]) and in data set [1] (setting [5]) was 34.0 in each case. Moreover, in data set [2], the “ThT pH 4.0 lag time (h)” value is on record as 45 h.
With `CC[C@H](C)[C@H](NC(=O)[C@H](C)NC(=O)CNC(=O)[C@H](Cc1ccccc1)NC(=O)[C@H](CC(N)=O)NC(=O)[C@@H]1CCCN1C(=O)[C@H](CO)NC(=O)[C@H](CO)NC(=O)[C@H](Cc1c[nH]cn1)NC(=O)[C@H](CCCNC(=N)N)NC(=O)[C@H](CC(C)C)NC(=O)[C@H](Cc1ccccc1)NC(=O)[C@H](CCC(=O)O)NC(=O)[C@H](C)NC(=O)[C@H](CC(C)C)NC(=O)[C@H](CCCNC(=N)N)NC(=O)[C@H](CCC(N)=O)NC(=O)[C@@H](NC(=O)[C@H](C)NC(=O)[C@@H]1CSSC[C@H](NC(=O)[C@H](CCCCN)NC(=O)CC[C@H](NC(=O)CCCCCCCCCCCCCCCCCCC(=O)O)C(=O)O)C(=O)N[C@@H](CC(N)=O)C(=O)N[C@@H]([C@@H](C)O)C(=O)N[C@@H](C)C(=O)N[C@@H]([C@@H](C)O)C(=O)N1)[C@@H](C)O)C(=O)N1CCC[C@H]1C(=O)N[C@@H](CO)C(=O)N[C@@H](CO)C(=O)N[C@H](C(=O)N[C@@H](CC(N)=O)C(=O)N[C@H](C(=O)NCC(=O)N[C@@H](CO)C(=O)N[C@@H](CCC(=O)O)C(=O)N[C@H](C(=O)N[C@@H](Cc1ccc(O)cc1)C(N)=O)[C@@H](C)O)C(C)C)[C@@H](C)O` [Example 22] ({C20 diacid-γGlu}-KCNTATCATQRLAEFLRHSSPNFGAIPSSTNVGSETY-NH2; disulfide 2-7), in data set [1] (Table 7), the IC50 turned out to be 2.19 nM. The “Ratio rCT/rAmylin binding” value in data set [1] (setting [3]), in data set [1] (setting [4]) and in data set [1] (setting [5]) was 28.5 throughout. In data set [2], the “ThT pH 4.0 lag time (h)” value amounted to 45 h.
With `CC[C@H](C)[C@H](NC(=O)[C@H](C)NC(=O)CNC(=O)[C@H](Cc1ccccc1)NC(=O)[C@H](CC(N)=O)NC(=O)[C@@H]1CCCN1C(=O)[C@H](CO)NC(=O)[C@H](CO)NC(=O)[C@H](Cc1c[nH]cn1)NC(=O)[C@H](CCCNC(=N)N)NC(=O)[C@H](CC(C)C)NC(=O)[C@H](Cc1ccccc1)NC(=O)[C@H](CCC(=O)O)NC(=O)[C@H](C)NC(=O)[C@H](CC(C)C)NC(=O)[C@H](CCCNC(=N)N)NC(=O)[C@H](CCC(N)=O)NC(=O)[C@@H](NC(=O)[C@H](C)NC(=O)[C@@H]1CSSC[C@H](NC(=O)[C@@H](N)CCCCNC(=O)CC[C@H](NC(=O)CC[C@H](NC(=O)CCCCCCCCCCCCCCCCCCC(=O)O)C(=O)O)C(=O)O)C(=O)N[C@@H](CC(N)=O)C(=O)N[C@@H]([C@@H](C)O)C(=O)N[C@@H](C)C(=O)N[C@@H]([C@@H](C)O)C(=O)N1)[C@@H](C)O)C(=O)N1CCC[C@H]1C(=O)N[C@@H](CO)C(=O)N[C@@H](CO)C(=O)N[C@H](C(=O)N[C@@H](CC(N)=O)C(=O)N[C@H](C(=O)NCC(=O)N[C@@H](CCCNC(=N)N)C(=O)N[C@@H](CC(N)=O)C(=O)N[C@H](C(=O)N[C@@H](Cc1ccc(O)cc1)C(N)=O)[C@@H](C)O)C(C)C)[C@@H](C)O` [Example 88] (H-K([γGlu-γGlu-C20 diacid])CNTATCATQRLAEFLRHSSPNFGAIPSSTNVGRNTY-NH2; disulfide 2-7), the IC50 in data set [1] (Table 7) was 2.31 nM. Besides, the “Ratio rCT/rAmylin binding” value in data set [1] (setting [3]), in data set [1] (setting [4]) and in data set [1] (setting [5]) was 84.9 throughout. The “ThT pH 4.0 lag time (h)” value in data set [2] turned out to be 45 h.
`CC[C@H](C)[C@H](NC(=O)[C@H](C)NC(=O)CNC(=O)[C@H](Cc1ccccc1)NC(=O)[C@H](CC(N)=O)NC(=O)[C@@H]1CCCN1C(=O)[C@H](CO)NC(=O)[C@H](CO)NC(=O)[C@H](Cc1c[nH]cn1)NC(=O)[C@H](CCCNC(=N)N)NC(=O)[C@H](CC(C)C)NC(=O)[C@H](Cc1ccccc1)NC(=O)[C@H](CCC(=O)O)NC(=O)[C@H](C)NC(=O)[C@H](CC(C)C)NC(=O)[C@H](CCCNC(=N)N)NC(=O)[C@H](CCC(N)=O)NC(=O)[C@@H](NC(=O)[C@H](C)NC(=O)[C@@H]1CSSC[C@H](NC(=O)[C@@H](N)CCCCNC(=O)CC[C@H](NC(=O)CC[C@H](NC(=O)CCCCCCCCCCCCCCCCCCC(=O)O)C(=O)O)C(=O)O)C(=O)N[C@@H](CC(N)=O)C(=O)N[C@@H]([C@@H](C)O)C(=O)N[C@@H](C)C(=O)N[C@@H]([C@@H](C)O)C(=O)N1)[C@@H](C)O)C(=O)N1CCC[C@H]1C(=O)N[C@@H](CO)C(=O)N[C@@H](CO)C(=O)N[C@H](C(=O)N[C@@H](CC(N)=O)C(=O)N[C@H](C(=O)NCC(=O)N1CCC[C@H]1C(=O)N[C@@H](CCC(=O)O)C(=O)N[C@H](C(=O)N1CCC[C@H]1C(N)=O)[C@@H](C)O)C(C)C)[C@@H](C)O` [Example 125] (H-K([γGlu-γGlu-C20 diacid])CNTATCATQRLAEFLRHSSPNFGAIPSSTNVGPETP-NH2; disulfide 2-7 (inferred); N-terminus assumed): the IC50 in data set [1] (Table 7) was determined as 0.152 nM. For the same compound, the “Ratio rCT/rAmylin binding” value in data set [1] (setting [3]) and in data set [1] (setting [4]) was 10.6 each time. Also, the “ThT pH 4.0 lag time (h)” value in data set [2] is given as 23 h.
For `CC[C@H](C)[C@H](NC(=O)[C@H](C)NC(=O)CNC(=O)[C@H](Cc1ccccc1)NC(=O)[C@H](CC(N)=O)NC(=O)[C@@H]1CCCN1C(=O)[C@H](CO)NC(=O)[C@H](CO)NC(=O)[C@H](Cc1c[nH]cn1)NC(=O)[C@H](CCCNC(=N)N)NC(=O)[C@H](CC(C)C)NC(=O)[C@H](Cc1ccccc1)NC(=O)[C@H](Cc1c[nH]cn1)NC(=O)[C@H](C)NC(=O)[C@H](CC(C)C)NC(=O)[C@H](CCCNC(=N)N)NC(=O)[C@H](CCC(N)=O)NC(=O)[C@@H](NC(=O)[C@H](C)NC(=O)[C@@H]1CSSC[C@H](NC(=O)[C@@H](N)CCCCNC(=O)CC[C@H](NC(=O)CCCCCCCCCCCCCCCCCCC(=O)O)C(=O)O)C(=O)N[C@@H](CC(N)=O)C(=O)N[C@@H]([C@@H](C)O)C(=O)N[C@@H](C)C(=O)N[C@@H]([C@@H](C)O)C(=O)N1)[C@@H](C)O)C(=O)N1CCC[C@H]1C(=O)N[C@@H](CO)C(=O)N[C@@H](CO)C(=O)N[C@H](C(=O)N[C@@H](CC(N)=O)C(=O)N[C@H](C(=O)NCC(=O)N[C@@H](CCCNC(=N)N)C(=O)N[C@@H](CC(N)=O)C(=O)N[C@H](C(=O)N[C@@H](Cc1ccc(O)cc1)C(N)=O)[C@@H](C)O)C(C)C)[C@@H](C)O` [Example 85] (H-K([γGlu-C20 diacid])CNTATCATQRLAHFLRHSSPNFGAIPSSTNVGRNTY-NH2; disulfide 2-7 (inferred); N-terminus assumed), in data set [1] (Table 7), the half-maximal inhibitory concentration (IC50) amounted to 3.14 nM. For the same compound, the “Ratio rCT/rAmylin binding” value in data set [1] (setting [3]), in data set [1] (setting [4]) and in data set [1] (setting [5]) was 46.5 throughout. Further, the “ThT pH 4.0 lag time (h)” value in data set [2] worked out at 45 h.

(Values after patent publication US9023789B2, “Amylin analogs and pharmaceutical compositions thereof” (Novo Nordisk A/S, priority 2012, dated 2015).)
